According to US20230248627A1, “COMPOSITION FOR HAIR FOLLICLE MODULATION, METHODS AND USES THEREOF” (priority 2020, published 2023):
Where a name gives a salt, the structure may show the parent alone.

Columns and labels:
[1] = tested on: human melanocytes (SK-MEL-23 cell line); assay: Intracellular melanin quantification in melanocytes treated in vitro; assay type: cell-based; settings: 10 µM dipyridamole, 1% (v/v) DMSO, 3 days, normalized by protein levels
Experimental: This example discloses an “in vitro” treatment of human melanocytes (SK-MEL-23 cell line) with a solution containing a modulation bioactive agent for darkening the skin.
In an embodiment, the bioactive agent used in this example was Dipyridamole as darkening agent in a solution containing water and DMSO.
Cells were seeded on 24-well plates at density of 9.0x10^4 cells/well and treated next day with 10 µM of dipyridamole and 1% (v/v) DMSO. In the control, cells were seeded on 24-well plates at density of 9.0x10^4 cells/well and treated next day with 1% (v/v) DMSO.
The intracellular melanin quantification was performed after 3 days. The method for quantifying melanin in hair was as described by Fernandes B. et al., 2016 [51]. The melanin contents were normalized by protein levels in each sample (DC Protein assay). Melanin change in cells treated with Dipyridamole was calculated using the following mathematical formula: […]

[2] = tested on: human scalp; assay: Pilot clinical study: hair melanin quantification after topical scalp application; assay type: in vivo; settings: for visible effect on hair colour: after 5 weeks of treatment; for Effectiveness (% of volunteers) / Hair Melanin change (% of control), max.: 5 weeks, 3 times per week
Experimental: All the results present on the following described examples were performed in a pilot clinical study with intervention of cosmetic products (RNEC number: 92938), not contested by the Portuguese Legal Competent Authorities.
This example discloses the treatment of human scalp with a formulation containing a modulation bioactive agent for lightening the hair.
The modulation bioactive agent used in this example was Rivastigmine hydrogen tartrate as lightening agent in a formulation containing water, a thickener agent with emulsifying properties - Lecigel™, a preservative agent - Euxyl® PE 9010, denaturing alcohol and Transcutol® CG.
The volunteers for the application test of the formulation with the modulation agent Rivastigmine hydrogen tartrate had black to medium brown hair.
Each volunteer received the formulation without the agent Rivastigmine hydrogen tartrate and the formulation with the agent Rivastigmine hydrogen tartrate.
(§1) On each volunteer, the hair was shaved in two different posterior scalp locations, of approximately 1 cm^2 each, and the formulations were applied for 5 weeks, three times a week.
(§2) The formulations with and without Rivastigmine were applied directly on scalp. Ten microliters per 1 cm^2 of the control formulation without Rivastigmine hydrogen tartrate were applied to one of the two shaved scalp areas while ten microliters per 1 cm^2 of the formulation with Rivastigmine hydrogen tartrate were applied to the other shaved scalp area.
After the 15th application of formulations with and without the modulation agent, a final picture was taken, the growth rate of the hairs was measured, and some hairs were plucked for further tests.
The hair melanin quantification process was performed after the clinical cosmetic study conclusion, using hairs collected from the scalp areas treated with and without Rivastigmine hydrogen tartrate in a formulation. The control means the hair collected from the scalp area treated with the formulation without Rivastigmine hydrogen tartrate.
In an embodiment, the method for quantifying melanin in hair was as described by Fernandes B. et al., 2016 [51]. Hair samples were digested in NaOH and the solutions obtained normalized to 1 mg/mL of hair. Complete oxidation of hair lysates was performed with hydrogen peroxide and melanin content in hair samples calculated by fluoresce spectroscopy using a standard curve generated by the fluorescence of oxidized melanin standards. Melanin change in hair treated with a formulation with Rivastigmine was calculated using the following mathematical formula: […]
This example discloses the treatment of human scalp with a formulation containing a modulation bioactive agent for darkening the hair.
In an embodiment, the bioactive agent used in this example was Dipyridamole as darkening agent in a formulation containing water, a thickener agent with emulsifying properties - Lecigel™, a preservative agent - Euxyl® PE 9010, denaturing alcohol and Transcutol® CG.
The volunteers for the application test of the formulation with the modulation bioactive agent Dipyridamole had blond hair of different shades.
Each volunteer received the formulation without the agent Dipyridamole and the formulation with the agent Dipyridamole.
as §2, with “In an embodiment, the” for “The”, “Dipyridamole” for “Rivastigmine”, “Dipyridamole” for “Rivastigmine hydrogen tartrate”
(§3) After the 15th application of formulations with and without the modulation bioactive agent, a final picture was taken, the growth rate of the hairs was measured, and some hairs were plucked for further tests.
The hair melanin quantification process was performed after the clinical cosmetic study conclusion, using hairs collected from the scalp areas treated with and without Dipyridamole in a formulation. […]

[3] = tested on: human scalp; assay: Pilot clinical study: hair curvature index after topical scalp application; assay type: in vivo; settings: for visible effect on hair shape: after 5 weeks of treatment; for Effectiveness (% of volunteers) / Hair shape change (% of control), max. / Hair shape change (% of control), mean: 5 weeks, 3 times per week; for Hair shape change (% of control), max. / Hair shape change (% of control), mean: curvature index
From the text: This example discloses the treatment of human scalp with a formulation containing a modulation bioactive agent for straightening the hair.
The bioactive agent used in this example was Midodrine hydrochloride as straightening agent in a formulation containing water, a thickener agent with emulsifying properties - Lecigel™, a preservative agent – Euxyl® PE 9010, denaturing alcohol and Transcutol® CG.
The volunteers for the application test of the formulation with the modulation bioactive agent Midodrine hydrochloride had curly hair.
Each volunteer received the formulation without the agent Midodrine hydrochloride and the formulation with the agent Midodrine hydrochloride.
as §1
as §2, with “Midodrine” for “Rivastigmine”, “Midodrine hydrochloride” for “Rivastigmine hydrogen tartrate”
After the 15th application of formulations with and without the modulation agent, a final picture was taken showing both sites of application, the growth rate of the hairs was measured, and some hairs were plucked for further tests.
(§4) The curvature index was determined after the clinical cosmetic study conclusion, using hairs collected from the scalp areas treated with and without the modulation bioactive agent in a formulation. The control was the hair collected from scalp area treated with the formulation without the modulation bioactive ingredient.
The effect on curvature index was calculated according to the following formula: […]
Each hair was individually measured over a white paper (hair in a relaxed form) and a force was applied in order to keep the hair straight (under stress) and, in this way, measure the length of hair in stressed form.
This example discloses the treatment of human scalp with a formulation containing a modulation bioactive agent for curling the hair.
The modulation bioactive agent used in this example was Topiramate as curling agent in a formulation containing water, a thickener agent with emulsifying properties - Lecigel™, a preservative agent - Euxyl® PE 9010, denaturing alcohol and Transcutol® CG.
The volunteers for the application test of the formulation with the modulation agent Topiramate had straight hair.
Each volunteer received the formulation without the agent Topiramate and the formulation with the agent Topiramate.
as §2, with “Topiramate” for “Rivastigmine”, “Topiramate” for “Rivastigmine hydrogen tartrate”
as §3
as §4, with “collected from the scalp area” for “collected from scalp area”

[4] = Straightening, 0.25% w/w formulation, curly-haired volunteers
[5] = Curling, 1.75% w/w formulation, straight-haired volunteers

OCCN(CCO)c1nc(N2CCCCC2)c2nc(N(CCO)CCO)nc(N3CCCCC3)c2n1 [Dipyridamole]
increase in melanin production relative to the control experiment [1]: 3.5 fold | visible effect on hair colour ([2]; 0.01% w/w formulation on scalp): induced a darkening effect | Effectiveness (% of volunteers) ([2]; Darkening, 0.01% w/w formulation on scalp, blond hair): 67.0 % of volunteers | Hair Melanin change (% of control), max. ([2]; Darkening, 0.01% w/w formulation, blond hair): +57.9%

COc1ccc(OC)c(C(O)CNC(=O)CN)c1 (stereo not drawn) [Midodrine HCl, Midodrine hydrochloride]
visible effect on hair shape ([3]; 0.25% w/w formulation on scalp, very curly hair): induced a straightening effect | Effectiveness (% of volunteers) ([3]; Straightening, 0.25% w/w formulation on scalp, curly-haired volunteers): 75.0% | Hair shape change (% of control), max. [3, 4]: +120.0% | Hair shape change (% of control), mean [3, 4]: +76.0%

CCN(C)C(=O)Oc1cccc([C@H](C)N(C)C)c1 [Rivastigmine, Rivastigmine hydrogen tartrate]
visible effect on hair colour ([2]; 0.2% w/w formulation on scalp): induced a lightening effect | Effectiveness (% of volunteers) ([2]; Lightening, 0.2% w/w formulation on scalp, black to medium brown hair): 50.0 % of volunteers | Hair Melanin change (% of control), max. ([2]; Lightening, 0.2% w/w formulation, black to medium brown hair): -26.3%

CC1(C)O[C@@H]2[C@@H](CO[C@@]3(COS(N)(=O)=O)OC(C)(C)O[C@@H]23)O1 [Topiramate]
visible effect on hair shape ([3]; 1.75% w/w formulation on scalp, straight hair): induced a curling effect | Effectiveness (% of volunteers) ([3]; Curling, 1.75% w/w formulation on scalp, straight-haired volunteers): 83.3% | Hair shape change (% of control), max. [3, 5]: -11.0% | Hair shape change (% of control), mean [3, 5]: -10.0%
